The source of these data is patent US20230295182A1, “SPIRO DERIVATIVES OF ALPHA-D-GALACTOPYRANOSIDES” (Idorsia Pharmaceuticals Ltd, priority 2020, published 2023).

One assay addresses human Gal-3 (hGal-3) (Homo sapiens (Human), UniProt P17931). Briefly: Competitive binding assay: biotinylated hGal-3 to microplate-adsorbed asialofetuin (ASF). To be noted: Activity on hGal-3; binding to ASF-coated plates, 3 hours at 4° C.; mean values. In a few lines:
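Biotinylated hGal-3 (300-1000 ng/mL) binding to plate-adsorbed asialofetuin, with DMSO-diluted compound added, incubated 3 h at 4 °C. After washing, bound protein detected with streptavidin-peroxidase (80 ng/mL, 1 h, 4 °C) and ABTS substrate, read spectrophotometrically. IC50 given as mean of several measurements.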

In the next assay the target is human Gal-1 (hGal-1) (Homo sapiens, UniProt P09382). As to the kind of experiment: Competitive binding assay: biotinylated hGal-1 to microplate-adsorbed asialofetuin (ASF). To be noted: Activities on hGal-1; binding to ASF-coated plates, 3 hours at 4° C.; mean values; read-out: Gal-1 IC50. The procedure, abridged:
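Plate-adsorbed asialofetuin is incubated 3 h at 4 °C with biotinylated hGal-1, optionally its all-serine-substituted cysteine variant, plus compound dilutions. ABTS color after 1 h streptavidin-peroxidase (80 ng/mL) at 4 °C reports binding. Reported IC50 is a mean across repeat runs.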

Structures are written as SMILES.

Sequence of human Gal-3 (hGal-3) (P17931 whole entry): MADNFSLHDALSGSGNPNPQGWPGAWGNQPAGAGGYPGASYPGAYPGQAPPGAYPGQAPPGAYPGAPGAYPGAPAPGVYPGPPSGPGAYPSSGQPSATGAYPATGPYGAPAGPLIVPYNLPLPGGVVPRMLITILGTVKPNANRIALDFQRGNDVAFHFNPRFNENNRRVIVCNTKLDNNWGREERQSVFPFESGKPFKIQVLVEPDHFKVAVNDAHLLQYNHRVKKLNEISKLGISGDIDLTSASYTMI
Sequence of human Gal-1 (hGal-1) (P09382 2-135 limits assumed): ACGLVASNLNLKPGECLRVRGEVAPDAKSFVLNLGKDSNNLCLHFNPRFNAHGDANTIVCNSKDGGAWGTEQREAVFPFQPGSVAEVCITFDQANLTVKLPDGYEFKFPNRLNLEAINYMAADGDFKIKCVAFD

For the compound `CO[C@@H]1[C@@H](n2cc(-c3ccc(F)c(F)c3F)nn2)[C@@H](O)[C@@H](CO)O[C@@H]1CC1=NO[C@]2(CC[C@@H](NC(=O)OC(C)(C)C)CC2)C1` [Example 1.42, tert-butyl ((5s,8S)-3-(((2R,3R,4S,5R,6R)-5-hydroxy-6-(hydroxymethyl)-3-methoxy-4-(4-(2,3,4-trifluorophenyl)-1H-1,2,3-triazol-1-yl)tetrahydro-2H-pyran-2-yl)methyl)-1-oxa-2-azaspiro[4.5]dec-2-en-8-yl)carbamate], the figures for the IC50 on human Gal-3 (hGal-3) and on human Gal-1 (hGal-1) were 132 nM and 850 nM, respectively.

In the case of `CO[C@@H]1[C@@H](n2cc(-c3ccc(C)c(F)c3F)nn2)[C@@H](O)[C@@H](CO)O[C@@H]1CC1=NO[C@]2(CC[C@H](NC(=O)OC(C)(C)C)CC2)C1` [Example 1.43, tert-butyl ((5r,8R)-3-(((2R,3R,4S,5R,6R)-4-(4-(2,3-difluoro-4-methylphenyl)-1H-1,2,3-triazol-1-yl)-5-hydroxy-6-(hydroxymethyl)-3-methoxytetrahydro-2H-pyran-2-yl)methyl)-1-oxa-2-azaspiro[4.5]dec-2-en-8-yl)carbamate], the IC50 on human Gal-3 (hGal-3) worked out at 15 nM; at human Gal-1 (hGal-1), 1240 nM.

As to `CO[C@@H]1[C@@H](n2cc(-c3ccc(C)c(F)c3F)nn2)[C@@H](O)[C@@H](CO)O[C@@H]1CC1=NO[C@]2(CC[C@@H](NC(=O)OC(C)(C)C)CC2)C1` [Example 1.44, tert-butyl ((5s,8S)-3-(((2R,3R,4S,5R,6R)-4-(4-(2,3-difluoro-4-methylphenyl)-1H-1,2,3-triazol-1-yl)-5-hydroxy-6-(hydroxymethyl)-3-methoxytetrahydro-2H-pyran-2-yl)methyl)-1-oxa-2-azaspiro[4.5]dec-2-en-8-yl)carbamate], the 50% inhibitory concentration (IC50) on human Gal-3 (hGal-3) was 100 nM; on human Gal-1 (hGal-1), 4900 nM.

With `CO[C@@H]1[C@@H](n2cc(-c3ccc(Cl)c(F)c3F)nn2)[C@@H](O)[C@@H](CO)O[C@@H]1CC1=NO[C@]2(CC[C@H](NC(=O)OC(C)(C)C)CC2)C1` [Example 1.45, tert-butyl ((5r,8R)-3-(((2R,3R,4S,5R,6R)-4-(4-(4-chloro-2,3-difluorophenyl)-1H-1,2,3-triazol-1-yl)-5-hydroxy-6-(hydroxymethyl)-3-methoxytetrahydro-2H-pyran-2-yl)methyl)-1-oxa-2-azaspiro[4.5]dec-2-en-8-yl)carbamate], the IC50 at human Gal-3 (hGal-3) was 10 nM; on human Gal-1 (hGal-1) it was 800 nM.

In the case of `CO[C@@H]1[C@@H](n2cc(-c3ccc(Cl)c(F)c3F)nn2)[C@@H](O)[C@@H](CO)O[C@@H]1CC1=NO[C@]2(CC[C@@H](NC(=O)OC(C)(C)C)CC2)C1` [Example 1.46, tert-butyl ((5s,8S)-3-(((2R,3R,4S,5R,6R)-4-(4-(4-chloro-2,3-difluorophenyl)-1H-1,2,3-triazol-1-yl)-5-hydroxy-6-(hydroxymethyl)-3-methoxytetrahydro-2H-pyran-2-yl)methyl)-1-oxa-2-azaspiro[4.5]dec-2-en-8-yl)carbamate], the IC50 on human Gal-3 (hGal-3) is 60 nM; at human Gal-1 (hGal-1) it was 1800 nM.

For `CO[C@@H]1[C@@H](n2cc(-c3cc(F)c(C)cc3F)nn2)[C@@H](O)[C@@H](CO)O[C@@H]1CC1=NOC2(CCCCC2)C1` [Example 1.47, (2R,3R,4S,5R,6R)-6-((1-oxa-2-azaspiro[4.5]dec-2-en-3-yl)methyl)-4-(4-(2,5-difluoro-4-methylphenyl)-1H-1,2,3-triazol-1-yl)-2-(hydroxymethyl)-5-methoxytetrahydro-2H-pyran-3-ol], the IC50 at human Gal-3 (hGal-3) is 430 nM; on human Gal-1 (hGal-1), 2200 nM.

For the compound `CO[C@@H]1[C@@H](n2cc(-c3ccc(F)c(F)c3F)nn2)[C@@H](O)[C@@H](CO)O[C@@H]1CC1=NOC2(CCC(C(C)(C)O)CC2)C1` (stereo partly drawn) [Example 1.48, (2R,3R,4S,5R,6R)-2-(hydroxymethyl)-6-((8-(2-hydroxypropan-2-yl)-1-oxa-2-azaspiro[4.5]dec-2-en-3-yl)methyl)-5-methoxy-4-(4-(2,3,4-trifluorophenyl)-1H-1,2,3-triazol-1-yl)tetrahydro-2H-pyran-3-ol], the half-inhibitory concentration (IC50) turned out to be 490 nM on human Gal-3 (hGal-3) and 2600 nM on human Gal-1 (hGal-1).

For the compound `CO[C@@H]1[C@@H](n2cc(-c3ccc(Cl)c(F)c3F)nn2)[C@@H](O)[C@@H](CO)O[C@@H]1CC1=NOC2(CCC(C#N)CC2)C1` (stereo partly drawn) [Example 1.49, 3-(((2R,3R,4S,5R,6R)-4-(4-(4-chloro-2,3-difluorophenyl)-1H-1,2,3-triazol-1-yl)-5-hydroxy-6-(hydroxymethyl)-3-methoxytetrahydro-2H-pyran-2-yl)methyl)-1-oxa-2-azaspiro[4.5]dec-2-ene-8-carbonitrile], the IC50 on human Gal-3 (hGal-3) is 110 nM; on human Gal-1 (hGal-1), 1200 nM.

As to `CO[C@@H]1[C@@H](n2cc(-c3ccc(F)c(F)c3F)nn2)[C@@H](O)[C@@H](CO)O[C@@H]1CC1=NOC2(CCC(C#N)CC2)C1` (stereo partly drawn) [Example 1.50, 3-(((2R,3R,4S,5R,6R)-5-hydroxy-6-(hydroxymethyl)-3-methoxy-4-(4-(2,3,4-trifluorophenyl)-1H-1,2,3-triazol-1-yl)tetrahydro-2H-pyran-2-yl)methyl)-1-oxa-2-azaspiro[4.5]dec-2-ene-8-carbonitrile], the IC50 at human Gal-3 (hGal-3) was found to be 160 nM; on human Gal-1 (hGal-1), 570 nM.

With `CO[C@@H]1[C@@H](n2cc(-c3ccc(C)c(F)c3F)nn2)[C@@H](O)[C@@H](CO)O[C@@H]1CC1=NOC2(CCC(C#N)CC2)C1` (stereo partly drawn) [Example 1.51, 3-(((2R,3R,4S,5R,6R)-4-(4-(2,3-difluoro-4-methylphenyl)-1H-1,2,3-triazol-1-yl)-5-hydroxy-6-(hydroxymethyl)-3-methoxytetrahydro-2H-pyran-2-yl)methyl)-1-oxa-2-azaspiro[4.5]dec-2-ene-8-carbonitrile], the results for the IC50 at human Gal-3 (hGal-3) and on human Gal-1 (hGal-1) were 100 nM and 1900 nM, respectively.

As to `CO[C@@H]1[C@@H](n2cc(-c3ccc(F)c(F)c3F)nn2)[C@@H](O)[C@@H](CO)O[C@@H]1CC1=NO[C@]2(CC[C@H](C(C)(C)O)CC2)C1` [Example 1.52, (2R,3R,4S,5R,6R)-2-(hydroxymethyl)-6-(((5r,8R)-8-(2-hydroxypropan-2-yl)-1-oxa-2-azaspiro[4.5]dec-2-en-3-yl)methyl)-5-methoxy-4-(4-(2,3,4-trifluorophenyl)-1H-1,2,3-triazol-1-yl)tetrahydro-2H-pyran-3-ol], the half-inhibitory concentration (IC50) on human Gal-3 (hGal-3) stood at 260 nM; on human Gal-1 (hGal-1), 2800 nM.

Turning to `CO[C@@H]1[C@@H](n2cc(-c3ccc(F)c(F)c3F)nn2)[C@@H](O)[C@@H](CO)O[C@@H]1CC1=NO[C@]2(CC[C@@H](C(C)(C)O)CC2)C1` [Example 1.53, (2R,3R,4S,5R,6R)-2-(hydroxymethyl)-6-(((5s,8S)-8-(2-hydroxypropan-2-yl)-1-oxa-2-azaspiro[4.5]dec-2-en-3-yl)methyl)-5-methoxy-4-(4-(2,3,4-trifluorophenyl)-1H-1,2,3-triazol-1-yl)tetrahydro-2H-pyran-3-ol], the results for the half-maximal inhibitory concentration (IC50) on human Gal-3 (hGal-3) and at human Gal-1 (hGal-1) were 270 nM and 1200 nM, respectively.

As for `CO[C@@H]1[C@@H](n2cc(-c3ccc(C)c(F)c3F)nn2)[C@@H](O)[C@@H](CO)O[C@@H]1CC1=NOC2(CCC(C(C)(C)O)CC2)C1` (stereo partly drawn) [Example 1.54, (2R,3R,4S,5R,6R)-4-(4-(2,3-difluoro-4-methylphenyl)-1H-1,2,3-triazol-1-yl)-2-(hydroxymethyl)-6-((8-(2-hydroxypropan-2-yl)-1-oxa-2-azaspiro[4.5]dec-2-en-3-yl)methyl)-5-methoxytetrahydro-2H-pyran-3-ol], the IC50 came to 200 nM at human Gal-3 (hGal-3) and 5400 nM at human Gal-1 (hGal-1).

On to `CO[C@@H]1[C@@H](n2cc(-c3ccc(Cl)c(F)c3F)nn2)[C@@H](O)[C@@H](CO)O[C@@H]1CC1=NOC2(CCC(C(C)(C)O)CC2)C1` (stereo partly drawn) [Example 1.55, (2R,3R,4S,5R,6R)-4-(4-(4-chloro-2,3-difluorophenyl)-1H-1,2,3-triazol-1-yl)-2-(hydroxymethyl)-6-((8-(2-hydroxypropan-2-yl)-1-oxa-2-azaspiro[4.5]dec-2-en-3-yl)methyl)-5-methoxytetrahydro-2H-pyran-3-ol], for which the IC50 was 400 nM on human Gal-3 (hGal-3) and 4400 nM at human Gal-1 (hGal-1).

`CO[C@@H]1[C@@H](n2cc(-c3ccc(C)c(F)c3F)nn2)[C@@H](O)[C@@H](CO)O[C@@H]1CC1=NO[C@]2(CC[C@@H](C#N)CC2)C1` [Example 1.56, (5s,8S)-3-(((2R,3R,4S,5R,6R)-4-(4-(2,3-difluoro-4-methylphenyl)-1H-1,2,3-triazol-1-yl)-5-hydroxy-6-(hydroxymethyl)-3-methoxytetrahydro-2H-pyran-2-yl)methyl)-1-oxa-2-azaspiro[4.5]dec-2-ene-8-carbonitrile]: the IC50 stood at 120 nM at human Gal-3 (hGal-3) and 3600 nM on human Gal-1 (hGal-1).

Regarding `CO[C@@H]1[C@@H](n2cc(-c3ccc(C)c(F)c3F)nn2)[C@@H](O)[C@@H](CO)O[C@@H]1CC1=NO[C@]2(CC[C@H](C#N)CC2)C1` [Example 1.57, (5r,8R)-3-(((2R,3R,4S,5R,6R)-4-(4-(2,3-difluoro-4-methylphenyl)-1H-1,2,3-triazol-1-yl)-5-hydroxy-6-(hydroxymethyl)-3-methoxytetrahydro-2H-pyran-2-yl)methyl)-1-oxa-2-azaspiro[4.5]dec-2-ene-8-carbonitrile], the IC50 on human Gal-3 (hGal-3) came out at 41 nM; at human Gal-1 (hGal-1) it was 530 nM.

Consider `CO[C@@H]1[C@@H](n2cc(-c3ccc(F)c(F)c3F)nn2)[C@@H](O)[C@@H](CO)O[C@@H]1CC1=NO[C@]2(CC[C@@H](C#N)CC2)C1` [Example 1.58, (5s,8S)-3-(((2R,3R,4S,5R,6R)-5-hydroxy-6-(hydroxymethyl)-3-methoxy-4-(4-(2,3,4-trifluorophenyl)-1H-1,2,3-triazol-1-yl)tetrahydro-2H-pyran-2-yl)methyl)-1-oxa-2-azaspiro[4.5]dec-2-ene-8-carbonitrile], for which the IC50 at human Gal-3 (hGal-3) was 110 nM; on human Gal-1 (hGal-1), 640 nM.

A word on the IC50: it is the concentration that inhibits the measured activity by half.
